Values joined by “and” are separate entries in the source; they are usually repeats but may differ in a detail not shown here. Equal entries are not always repeated. Where two headings read alike, the source gives them in different places.
Experiments:
Test in all cases: greenhouse post-emergence herbicidal test
STEME = type: in vivo, Stellaria media; parameters: key: scale 0 to 100
Summary of the method: (§1)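 Seeds sown per species in loamy sand with roughly 4.6% humus; seedlings raised to 1 to 15 cm, then treated with water-borne spray of a 10% by weight emulsion concentrate. Response assessed on day 20 from 0 (normal growth) to 100 (destroyed).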

GALAP = type: in vivo, Galium aparine; parameters: key to herbicidal activity against GALAP found: rating on a scale from 0 to 100; details: post emergence; for pest or weed control at 31.25 g/ha / pest or weed control at 62.5 g/ha / pest or weed control at 125 g/ha: Galium aparine, post-emergence, 480 h, read-out: herbicidal activity against GALAP found; for pest or weed control at 125 g/ha: 125 g/ha a.i.
Summary of the method: (§2)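 Post-emergence greenhouse test: plants in loamy sand, sprayed at 1–15 cm height with aqueous spray liquor from 10% emulsion concentrates, kept at 10-25 °C or 20-35 °C by species. Damage scored 0–100 (100 = complete destruction), usually 20 days after treatment. Expected additive effect E from Colby: E=X+Y−(X·Y/100).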

ALOMY = type: in vivo, Alopecurus myosuroides; parameters: key to herbicidal activity against ALOMY found: rating on a scale from 0 to 100; details: post emergence
Summary of the method: as §1

SASKR = type: in vivo, Salsola kali; parameters: key: scale 0 to 100
Summary of the method: as §2

PHACA = type: in vivo
Protocol: (§3) The culture containers used were plastic pots containing medium loamy sand with approximately 4.6% of humus and 69.9% sand as substrate. The seeds of the test plants were sown separately for each species.
(§4) For the post-emergence treatment, the test plants were grown to a plant height of from 1 to 15 cm, depending on the plant habit, and only then treated with the active compounds which had been suspended or emulsified in water. To this end, the test plants were either sown directly, and grown in the same containers, or they were first grown separately as seedlings and transplanted into the test containers a few days prior to treatment.
(§5) Depending on the species, the plants were kept at 10-25° C. and 20-35° C., respectively.
(§6) The test period extended over 1 to 3 weeks. During this time, the plants were tended and their response to the individual treatments was evaluated 20 days after treatment except mentioned otherwise.
(§7) Evaluation was carried out using a scale from 0 to 100. 100 means no emergence of the plants, or complete destruction of at least the above-ground parts, and 0 means no damage or normal course of growth.
(§8) The respective stated components A and B, and, if appropriate, C, were formulated as a 10% by weight strength emulsion concentrate and, with addition of the amount of solvent system, introduced into the spray liquor used for applying the active compound. In the examples, the solvent used was water.
(§9) In the examples below, using the method of S. R. Colby (1967) “Calculating synergistic and antagonistic responses of herbicide combinations”, Weeds 15, p. 22 ff., the value E, which is expected if the activity of the individual active compounds is only additive, was calculated. E=X+Y−(X·Y/100)

PANMI = type: in vivo, Panicum miliaceum; details: application rate a.i.: I.1 125 g/ha, alone or as mixture (composition 1.113)
Protocol: as §3, §4, §5, §6, §7, §8, §9

[1] = a.i. g/ha: I.1 6.9, B.67 62.5, 20 days after treatment
[2] = a.i. g/ha: I.1 15.6, B.67 125, 20 days after treatment
[3] = a.i. g/ha: I.1 20.8, B.67 62.5, 20 days after treatment
[4] = a.i. g/ha: I.1 31.25, B.67 125, 20 days after treatment
[5] = a.i. g/ha: I.1 62.5, B.191 225, 20 days after treatment
[6] = 6 days after treatment, g/ha a.i.: I.1 62.5, B.96 140, mixture 62.5+140
[7] = I.1 31.25 g/ha, B.95 1 g/ha a.i.
[8] = a.i. g/ha: I.1 62.5, B.67 62.5, 20 days after treatment
[9] = application rate a.i.: I.1 31.25 g/ha, B.84 (paraquat-dichloride) 17.5 g/ha, alone or as mixture (composition 1.84)
[10] = applied alone at 31.25 g/ha a.i.

O=C(O)c1cc(C2CC2)nc2onc(C3CC3)c12 [I.1]
35%: herbicidal activity against PHACA found (PHACA; a.i. g/ha: I.1 62.5, B.67 125, 20 days after treatment)
70%: herbicidal activity against STEME found (STEME; a.i. g/ha: I.1 31.25, B.190 62.5, 20 days after treatment) | herbicidal activity against STEME found (STEME; [4]) | herbicidal activity against STEME found (STEME; a.i. g/ha: I.1 31.25, B.67 125, 20 days after treatment, sub-table r36-r43)
75%: herbicidal activity against GALAP found (GALAP; [4])
25%: pest or weed control at 125 g/ha (ALOMY; Alopecurus myosuroides, post-emergence, 480 h, I.1 125 g/ha a.i., read-out: herbicidal activity against ALOMY found) | pest or weed control at 125 g/ha (ALOMY; Alopecurus myosuroides, post-emergence, 480 h, single active, 125 g/ha a.i., read-out: herbicidal activity against ALOMY found)
30: herbicidal activity against STEME found (STEME; I.1 alone 31.25 g/ha a.i.) | herbicidal activity against ALOMY found (ALOMY; g/ha a.i.: I.1 125, B.20 2, mixture 125+2) | herbicidal activity against ALOMY found (ALOMY; g/ha a.i.: I.1 125, B.20 4, mixture 125+4) | herbicidal activity against ALOMY found (ALOMY; g/ha a.i.: I.1 125, B.24 1, mixture 125+1) | herbicidal activity against ALOMY found (ALOMY; g/ha a.i.: I.1 125, B.24 2, mixture 125+2) | herbicidal activity against ALOMY found (ALOMY; g/ha a.i.: I.1 125, B.52 2.5, mixture 125+2.5) | herbicidal activity against ALOMY found (ALOMY; g/ha a.i.: I.1 125, B.63 0.5, mixture 125+0.5)
0%: herbicidal activity against STEME found (STEME; a.i. g/ha: I.1 2.3, B.67 62.5, 20 days after treatment) | herbicidal activity against STEME found (STEME; [1]) | herbicidal activity against STEME found (STEME; [2]) | herbicidal activity against GALAP found (GALAP; [3]) | pest or weed control at 31.25 g/ha (ALOMY; Alopecurus myosuroides, post-emergence, 480 h, I.1 alone 31.25 g/ha a.i., read-out: herbicidal activity against ALOMY found) | pest or weed control at 31.25 g/ha (ALOMY; Alopecurus myosuroides, post-emergence, 480 h, I.1 31.25 g/ha a.i., read-out: herbicidal activity against ALOMY found) | pest or weed control at 62.5 g/ha (ALOMY; Alopecurus myosuroides, post-emergence, 480 h, I.1 62.5 g/ha a.i., read-out: herbicidal activity against ALOMY found) | pest or weed control at 15.62 g/ha (ALOMY; Alopecurus myosuroides, post-emergence, 480 h, single active, 15.62 g/ha a.i., read-out: herbicidal activity against ALOMY found) | pest or weed control at 31.25 g/ha (ALOMY; Alopecurus myosuroides, post-emergence, 480 h, single active, 31.25 g/ha a.i., read-out: herbicidal activity against ALOMY found) | pest or weed control at 62.5 g/ha (ALOMY; Alopecurus myosuroides, post-emergence, 480 h, single active, 62.5 g/ha a.i., read-out: herbicidal activity against ALOMY found) | herbicidal activity against ALOMY found (ALOMY; [1]) | herbicidal activity against ALOMY found (ALOMY; [3]) | herbicidal activity against ALOMY found (ALOMY; [8]) | herbicidal activity against PHACA found (PHACA; [4])
60: herbicidal activity against STEME found (STEME; 6 days after treatment, g/ha a.i.: I.1 31.25, B.96 35, mixture 31.25+35) | herbicidal activity against STEME found (STEME; I.1 15.62 g/ha, B.103 15 g/ha a.i.) | herbicidal activity against GALAP found (GALAP; I.1 62.5 g/ha, B.95 2 g/ha a.i.) | herbicidal activity against SASKAR found (SASKR; 31.25 g/ha a.i.) | herbicidal activity against PANMI, found (PANMI; B.113 (glyphosate) 33.75 g/ha) | herbicidal activity against PANMI, found (PANMI; B.113 (glyphosate) 135 g/ha)
90: herbicidal activity against GALAP found (GALAP; applied alone at 62.5 g/ha a.i.)
20: herbicidal activity against SASKR found (SASKR; 31.25 g/ha a.i.)
80: herbicidal activity against GALAP found (GALAP; application rate a.i.: I.1 125 g/ha, B.113 (glyphosate) 33.75 g/ha, alone or as mixture (composition 1.113)) | herbicidal activity against GALAP found (GALAP; application rate a.i.: I.1 125 g/ha, B.113 (glyphosate) 135 g/ha, alone or as mixture (composition 1.113))
20%: herbicidal activity against GALAP found (GALAP; [2])
65: herbicidal activity against STEME found (STEME; 62.5 g/ha a.i.) | herbicidal activity against GALAP found (GALAP; 6 days after treatment, g/ha a.i.: I.1 62.5, B.96 70, mixture 62.5+70) | herbicidal activity against GALAP found (GALAP; [6]) | herbicidal activity against GALAP found (GALAP; [9]) | herbicidal activity against SASKR found (SASKR; 6 days after treatment, g/ha a.i.: I.1 31.25, naptalam 200, mixture 31.25+200) | herbicidal activity against SASKR found (SASKR; [6]) | herbicidal activity against SASKR found (SASKR; 6 days after treatment, g/ha a.i.: I.1 62.5, naptalam 50, mixture 62.5+50) | herbicidal activity against SASKR found (SASKR; 6 days after treatment, g/ha a.i.: I.1 62.5, naptalam 200, mixture 62.5+200)
0: herbicidal activity against STEME found (STEME; I.1 15.62 g/ha, B.89 25 g/ha a.i.) | herbicidal activity against STEME found (STEME; I.1 31.25 g/ha, B.89 12.5 g/ha a.i.) | herbicidal activity against STEME found (STEME; I.1 31.25 g/ha, B.89 25 g/ha a.i.) | herbicidal activity against ALOMY found (ALOMY; [7]) | herbicidal activity against ALOMY found (ALOMY; I.1 62.5 g/ha, B.88 1 g/ha a.i.) | herbicidal activity against ALOMY found (ALOMY; I.1 62.5 g/ha, B.88 2 g/ha a.i.) | herbicidal activity against ALOMY found (ALOMY; I.1 62.5 g/ha, B.89 12.5 g/ha a.i.) | herbicidal activity against ALOMY found (ALOMY; I.1 62.5 g/ha, B.95 1 g/ha a.i.) | herbicidal activity against ALOMY found (ALOMY; [10])
50%: herbicidal activity against STEME found (STEME; [3]) | pest or weed control at 31.25 g/ha (GALAP; I.1 alone 31.25 g/ha a.i.) | pest or weed control at 31.25 g/ha (GALAP; 31.25 g/ha a.i.) | pest or weed control at 62.5 g/ha (GALAP; 62.5 g/ha a.i.)
70: herbicidal activity against STEME found (STEME; 31.25 g/ha a.i.)
85%: herbicidal activity against STEME found (STEME; [5])
65%: pest or weed control at 62.5 g/ha (GALAP; single active, 62.5 g/ha a.i.) | pest or weed control at 125 g/ha (GALAP; single active) | herbicidal activity against GALAP found (GALAP; a.i. g/ha: I.1 31.25, B.92 0.5, 20 days after treatment) | herbicidal activity against GALAP found (GALAP; [5]) | herbicidal activity against GALAP found (GALAP; a.i. g/ha: I.1 62.5, B.69 25, 20 days after treatment) | herbicidal activity against GALAP found (GALAP; a.i. g/ha: I.1 62.5, B.82 31.25, 20 days after treatment)
50: herbicidal activity against GALAP found (GALAP; [7]) | herbicidal activity against GALAP found (GALAP; I.1 31.25 g/ha, B.95 2 g/ha a.i.) | herbicidal activity against GALAP found (GALAP; I.1 62.5 g/ha, B.103 7.5 g/ha a.i.) | herbicidal activity against GALAP found (GALAP; [10])
10%: herbicidal activity against GALAP found (GALAP; [8]) | herbicidal activity against GALAP found (GALAP; a.i. g/ha: I.1 62.5, B.77 75, 20 days after treatment)
10: herbicidal activity against GALAP found (GALAP; application rate a.i.: I.1 62.5 g/ha, B.107 (topramezone) 6 g/ha, alone or as mixture (composition 1.107)) | herbicidal activity against SASKR found (SASKR; [9])
80%: pest or weed control at 62.5 g/ha (GALAP; I.1 alone 62.5 g/ha a.i.) | pest or weed control at 125 g/ha (GALAP)
20 and 25: herbicidal activity against ALOMY found (ALOMY; applied alone at 125 g/ha a.i.)
45: herbicidal activity against ALOMY found (ALOMY; application rate a.i.: I.1 250 g/ha, B.193 15 g/ha, alone or as mixture (composition 1.193))
65 and 95 and 90: herbicidal activity against GALAP found (GALAP; applied alone at 125 g/ha a.i.)
60%: pest or weed control at 31.25 g/ha (GALAP; I.1 31.25 g/ha a.i.) | pest or weed control at 62.5 g/ha (GALAP; I.1 62.5 g/ha a.i.)
25: herbicidal activity against ALOMY found (ALOMY; g/ha a.i.: I.1 31.25, B.52 2.5, mixture 31.25+2.5) | herbicidal activity against ALOMY found (ALOMY; g/ha a.i.: I.1 62.5, B.20 4, mixture 62.5+4) | herbicidal activity against ALOMY found (ALOMY; g/ha a.i.: I.1 62.5, B.52 2.5, mixture 62.5+2.5)
